Experimental findings from patent EP0605261B1, “Use of a flavone derivative as taste modifier and a method of modifying taste” (SAN-EI GEN F.F.I., INC., priority 1992, dated 1994) are described below.

Holding throughout (type): in vivo
Assay [1] in a line: Five points evaluation test: saltiness and savor modifying effect (toothpaste containing salt). The conditions noted are these: average points of 5 panellers (2: no changes). On the procedure:
Compound 7 of the flavone derivative (I) was used as a taste modifier. To commercially available toothpaste (containing salt), the flavone derivative (I) was added in the amount of 1, 0.1 and 0.01 ppm respectively to prepare samples. Sensory tests were carried out for modifying effects of the saltiness and the savor of toothpaste. Flavone derivative (I) free toothpaste was used as a standard substance.
The sensory tests were conducted by 5 trained panellers to examine saltiness modifying effect (so called saltiness adapting effect) and savor modifying effect.
Each sample solution was evaluated assuming that the standard solution has the point of 2.

Assay [2] is described as follows: Sensory test: savor (boiled fish paste). To be noted: 1.5 w/w% glycine, 0.0001 w/w%, 10 panellers. On the procedure: Compound 7 of the flavone derivative (I) was used as a taste modifier. In accordance with a general method, boiled fish paste containing 0.0001 w/w% of the flavone derivative (I) and flavone derivative (I) free boiled fish paste were prepared in use of 1.5 w/w% glycine. Sensory tests for the savor were conducted by 10 panellers comprised of 6 males and 4 females at the age from 20 to 40.

Assay [3] in a line: Sensory test (limiting method): enhancing the sourness of acid sugar solution. More on the design: key: (equivalent citric acid content / citric acid content with flavone) × 100. The conditions noted are these: citric acid 1.000 (g), flavone derivative (I) 0.00001 (g), 8 panellers; for Value of enhancing the sourness Ascending system: ascending system (from low concentration); for Value of enhancing the sourness Descending system: descending system (from high concentration). On the procedure: Compounds 1 to 11 of the flavone derivative (I) were used as a taste modifier to prepare acid sugar solution having compositions as follows:
As a control, 21 types of acid sugar solutions are used. In the control, the flavone derivative (I) is removed from the above composition and the content of citric acid is varied from 1.000 g to 1.500 g by 0.025 g.
Sensory tests were carried out by 8 trained panellers in accordance with a limiting method described in the Hand Book of Sensory evaluation, edited by Research Committee of sensory evaluation, Union of Japanese Scientists and Engineers, p.398 (1973) in use of acid sugar solutions containing respective flavone derivatives (I) and another acid sugar solutions having a various content of citric acid.
As for the content of citric acid, two types sensory tests were conducted, one was an ascending system (testing from solution with low concentration) and another was a descending system (testing from solution with high concentration).
The sensory evaluation was made by a value of enhancing the sourness. The value of enhancing the sourness was calculated by the following formula based on the content of citric acid in acid sugar solutions with varied concentration of citric acid, which has an equivalent stimulation with an acid sugar solution containing the flavone derivative (I) Value of enhancing the sourness = (content of citric acid in acid sugar solution sensed as an equivalent stimulation/content of citric acid in acid sugar solution containing the flavone derivative (I)) x 100 [formula]

Assay [4] is described as follows: Sensory test: savor (hard candy). The conditions noted are these: hard candy with Aspartame; 0.0001 w/w%; 10 panellers. On the procedure:
Compound 10 of the flavone derivative (I) was used as a taste modifier, and 22.5 w/w% thick malt syrup of reducing maltose, 22.5 w/w% reducing starch saccharide and 0.08 w/w% of Aspartame were used as sweetening agents. In accordance with a general method, hard candy containing 0.0001 w/w% of the flavone derivative (I) and flavone derivative (I) free hard candy were prepared. Sensory tests for the savor were conducted by 10 panellers comprised of 6 males and 4 females at the age from 20 to 40.

Turning to `COc1ccc(-c2oc3c(OC)c(OC)cc(OC)c3c(=O)c2OC)cc1OC` [Compound 7, 3,3',4',5,7,8-hexamethoxyflavone], in assay [1] (0.01 ppm), the “Saltiness and Savor Modifying Effect: Saltiness” value stood at 2.2; the “Saltiness and Savor Modifying Effect: Savor” value turned out to be 2.2. Also, in assay [1] (0.10 ppm), the “Saltiness and Savor Modifying Effect: Saltiness” value amounted to 2.6; the “Saltiness and Savor Modifying Effect: Savor” value is given as 2.4. In addition, in assay [1] (1.00 ppm), the “Saltiness and Savor Modifying Effect: Saltiness” value is recorded as 3.4; the “Saltiness and Savor Modifying Effect: Savor” value came out at 3.0. The “the savor, as sensed by all the panellers” value in assay [2] is given as “better than that of the control”. Moreover, in assay [3], the “Value of enhancing the sourness Ascending system” value turned out to be 116 and the “Value of enhancing the sourness Descending system” value turned out to be 119.

For `COc1ccc(-c2cc(=O)c3c(O)c(OC)c(OC)c(OC)c3o2)cc1OC` [Compound 10, 5-hydroxy-3',4',6,7,8-pentamethoxyflavone], the “the savor, as sensed by all the panellers” value in assay [4] is listed as “better than that of the control”. Moreover, in assay [3], the “Value of enhancing the sourness Ascending system” value stood at 120 and the “Value of enhancing the sourness Descending system” value was 123.
